The source of these data is US20240292843A1, “BIOFILM REMOVAL” (PARTNERS FOR ENDOSCOPY LIMITED, priority 2021, published 2024).

The experiment concerns biofilm containing Pseudomonas aeruginosa. Nature of the experiment: Biofilm treatment of endoscope biopsy channel pieces, CFU by serial dilution and plate counting (FIG. 1). As to conditions: mature biofilm on biopsy channel tubes; treatment applied for 5 minutes; 1.5 wt. % hydrogen peroxide or 1 mg/ml zeolite Y, aqueous; versus phosphate-buffer saline control; triplicate. The format is cell-based.

Protocol: The biopsy channel of the endoscope harbors a biofilm containing Pseudomonas aeruginosa. As a first step, to form the sample biopsy tubes harboring the biofilm, the biopsy channel was first cut into small pieces, which are then submerged into Müller-Hilton broth. A single colony of Pseudomonas aeruginosa was added to the broth. At a second step, the pieces were kept in the broth at 37° C. for 24 hours to allow the bacteria to grow. Also in the second step, the tube pieces were then washed 5 times with a copious amount of water to remove dangling bacteria, and to leave only fixed biofilm remaining on the surface of the tubes. The second step is then repeated three times to provide a mature biofilm. To provide the data of FIG. 1, different treatment mixtures were applied for 5 minutes to the tubes with mature biofilm. The tubes with mature biofilm were prepared using the method above. After the treatment mixture is applied, the tubes are washed. The tubes are then placed in a centrifuge tube floating in an ultrasonic bath to release bacteria in the biofilm into solution. The number of colony forming units (CFU) is calculated via serial dilution and plate counting method. Each experiment is performed in triplicate.

For `OO` [hydrogen peroxide], the “number of colony forming units of the Pseudomonas aeruginosa bacteria” value is “causes a reduction”.
